Experimental data: US5599902A, “Cancer inhibitory peptides” (Arizona Board of Regents acting on behalf of Arizona State …, priority 1994, dated 1997)
pIC50: −log10 of the molar value.

Experiments:
[1] = test system: P388 Lymphocytic Leukemia; experiment: Murine in vivo system: P388 Lymphocytic Leukemia, T/C
Description: (§1) The synthesis of potentially useful peptides presents one of the most essential and promising approaches to new types of anticancer and immunosuppressant drugs. The Dolastatins, an unprecedented series of linear and cyclic antineoplastic and/or cytostatic peptides isolated from Indian Ocean sea hare Dolabella auricularia represent excellent leads for synthetic modification. The very productive sea hare Dolabella auricularia has produced a number of structurally distinct peptides with excellent antineoplastic activity. Presently dolastatin 10, a linear pentapeptide represents the most important member and is a potentially useful antineoplastic agent. […] Recently the total synthesis and absolute configuration of this structurally unique and biologically active peptide was reported.
(§2) Experimental Anticancer Activity of Dolastatin 10 in Murine in vivo Systems, T/C (μg/kg)

[2] = test system: L1210 Lymphocytic Leukemia; experiment: Murine in vivo system: L1210 Lymphocytic Leukemia, T/C
Description: as §1, §2

[3] = test system: OVCAR-3 Human Ovary Xenograft; experiment: OVCAR-3 Human Ovary Xenograft Nude Mouse, T/C; assay type: in vivo; conditions: OVCAR-3 xenograft, dose 40 μg/kg
Description: as §1, §2

M5076 Ovary Sarcoma = experiment: Murine in vivo system: M5076 Ovary Sarcoma, T/C
Description: as §1, §2

B16 Melanoma = experiment: Murine in vivo system: B16 Melanoma, T/C
Description: as §1, §2

[4] = test system: LOX Human Melanoma Xenograft; experiment: LOX Human Melanoma Xenograft to Nude Mouse, T/C; assay type: in vivo
Description: as §2

[5] = test system: MX-1 Human Mammary Xenograft; experiment: MX-1 Human Mammary Xenograft (Tumor Regression), T/C; assay type: in vivo, Murine
Description: as §1, §2

Human Mammary Xenograft = Human Mammary Xenograft Nude Mouse, T/C; assay type: in vivo
Description: as §1, §2

[6] = test system: L1210 murine leukemia cells; experiment: Activity against L1210 murine leukemia cells (IC50); assay type: cell-based
Description: A molecule (22c) was designed based on the conformational similarities with (6R)-isodolastatin 10 (See FIGS. 1a and 1b). The molecule was then synthesized by the procedure outlined in this application.

NCI-H460 = experiment: Human cancer cell line growth inhibition, Lung-NSC NCI-H460; assay type: cell-based; conditions: Lung-NSC NCI-H460, 48 hours
Procedure: (§3) Cancer Inst. […] Cancer Inst. Reports, Vol 81, No. 14, Page 1088, Jul.
(§4) The only difference is historical usage.
(§5) Percent Growths are calculated for each dose.
(§6) This is the "baseline count" or "Tzero reading".

SK-MEL-5 = experiment: Human cancer cell line growth inhibition, Melanoma SK-MEL-5; assay type: cell-based; conditions: Melanoma SK-MEL-5, 48 hours
Procedure: as §3, §4, §5, §6

KM20L2 = experiment: Human cancer cell line growth inhibition, Colon KM20L2; assay type: cell-based; conditions: Colon KM20L2, 48 hours
Procedure: as §3, §4, §5, §6

A4X8 = experiment: Human cancer cell line growth inhibition, Renal A4X8; assay type: cell-based; conditions: Renal A4X8, 48 hours
Procedure: as §3, §4, §5, §6

[7] = test system: PS-388 Leukemia cell line; experiment: PS-388 mouse leukemia cell line growth inhibition; assay type: cell-based; conditions: Mouse Leukemia PS-388, 48 hours
Procedure: as §4, §5, §6

SF-2X5 = experiment: Human cancer cell line growth inhibition, CNS SF-2X5; assay type: cell-based; conditions: CNS SF-2X5, 48 hours
Procedure: as §3, §4, §5, §6

OVCAR-3 = experiment: Human cancer cell line growth inhibition, Ovarian OVCAR-3; assay type: cell-based; conditions: Ovarian OVCAR-3, 48 hours
Procedure: as §3, §4, §5, §6

[8] = LOX in separate experiments, dose 9.0 μg/kg
[9] = LOX in separate experiments, dose 26 μg/kg
[10] = LOX in separate experiments, dose 43 μg/kg

`CC[C@H](C)[C@@H]([C@@H](CC(=O)N1CCC[C@H]1[C@H](OC)[C@@H](C)C(=O)N[C@@H](Cc1ccccc1)c1nccs1)OC)N(C)C(=O)[C@@H](NC(=O)[C@H](C(C)C)N(C)C)C(C)C` [Dolastatin 10] was tested, and the T/C ([1]; P388, dose 1.63 μg/kg) was 137, the T/C ([1]; P388, dose 3.25 μg/kg) was 146 and the cures ([1]; P388, dose 3.25 μg/kg) was 17%. The T/C ([1]; P388, dose 6.5 μg/kg) was 155, the cures ([1]; P388, dose 6.5 μg/kg) was 17% and the T/C ([1]; P388, dose 13.0 μg/kg) was “toxic”. For the same molecule, the T/C ([2]; L1210, dose 1.63 μg/kg) was 120, the T/C ([2]; L1210, dose 3.25 μg/kg) was 139 and the T/C ([2]; L1210, dose 6.5 μg/kg) was 135. The T/C ([2]; L1210, dose 13 μg/kg) was 152, the T/C [3] was 300 and the T/C (M5076 Ovary Sarcoma; M5076, dose 3.25 μg/kg) was 151. The T/C (M5076 Ovary Sarcoma; M5076, dose 6.5 μg/kg) was 142, the T/C (M5076 Ovary Sarcoma; M5076, dose 13 μg/kg) was 166 and the T/C (M5076 Ovary Sarcoma; M5076, dose 26 μg/kg) was “toxic”. The T/C (B16 Melanoma; B16, dose 1.44 μg/kg) was 142, the T/C (B16 Melanoma; B16, dose 3.4 μg/kg) was 171 and the T/C (B16 Melanoma; B16, dose 4.0 μg/kg) was 205. For the same molecule, the T/C (B16 Melanoma; B16, dose 6.67 μg/kg) was 182, the T/C (B16 Melanoma; B16, dose 11.11 μg/kg) was 238 and the cures (B16 Melanoma; B16, dose 11.11 μg/kg) was 40%. The T/C [4, 8] was 138, the cures [4, 8] was 17% and the T/C ([4]; LOX in separate experiments, dose 15 μg/kg) was 192. The T/C [4, 9] was 181, the cures [4, 9] was 33% and the T/C [4, 10] was 340. The cures [4, 10] was 50%, the T/C ([4]; LOX, dose 3.25 μg/kg) was 170 and the cures ([4]; LOX, dose 3.25 μg/kg) was 17%. It also gave a T/C ([4]; LOX, dose 6.5 μg/kg) of 206, a cures ([4]; LOX, dose 6.5 μg/kg) of 33% and a T/C ([4]; LOX, dose 13 μg/kg) of 301. For the same molecule, the cures ([4]; LOX, dose 13 μg/kg) was 50%, the T/C ([4]; LOX, dose 26 μg/kg) was 301 and the cures ([4]; LOX, dose 26 μg/kg) was 67%. The T/C ([4]; LOX, dose 52 μg/kg) was “toxic”, the “T/C (Tumor Regression)” value ([5]; MX-1, dose 6.25 μg/kg) was 69 and the “T/C (Tumor Regression)” value ([5]; MX-1, dose 13 μg/kg) was 61. For the same molecule, the “T/C (Tumor Regression)” value ([5]; MX-1, dose 26 μg/kg) was 50, the “T/C (Tumor Regression)” value ([5]; MX-1, dose 52 μg/kg) was 14 and the T/C (Human Mammary Xenograft; dose 6.25 μg/kg) was 178. For the same molecule, the T/C (Human Mammary Xenograft; dose 13 μg/kg) was 137 and the T/C (Human Mammary Xenograft; dose 26 μg/kg) was “Toxic”.

`CC[C@H](C)[C@@H]([C@@H](CC(=O)N1CCC[C@H]1CCC(=O)N[C@@H](CCSC)C(=O)OC)OC)N(C)C(=O)[C@@H](NC(=O)[C@H](C(C)C)N(C)C)C(C)C` [22c, Dov-val-dil-desmethoxy-desmethyl-dolaproine-methionine methyl ester] was tested, and the pIC50 [6] was 5.40.

“Dov-Val-Dil-Dap methyl ester [compound 21]” was tested, and the GI-50 (NCI-H460) was 0.0022 µg/mL, the LC-50 (NCI-H460) was > 1 µg/mL and the TGI (NCI-H460) was 0.021 µg/mL. The GI-50 (SK-MEL-5) was 0.0087 µg/mL, the LC-50 (SK-MEL-5) was > 1 µg/mL and the TGI (SK-MEL-5) was > 1 µg/mL. For the same molecule, the GI-50 (KM20L2) was 0.021 µg/mL, the LC-50 (KM20L2) was > 1 µg/mL and the TGI (KM20L2) was 0.23 µg/mL. For the same molecule, the GI-50 (A4X8) was 0.02 µg/mL, the LC-50 (A4X8) was > 1 µg/mL and the TGI (A4X8) was > 1 µg/mL. The ED-50 [7] was 0.0297 µg/mL, the GI-50 (SF-2X5) was 0.0038 µg/mL and the LC-50 (SF-2X5) was > 1 µg/mL. For the same molecule, the TGI (SF-2X5) was > 0.035 µg/mL, the GI-50 (OVCAR-3) was 0.0035 µg/mL and the LC-50 (OVCAR-3) was > 1 µg/mL. The TGI (OVCAR-3) was 0.026 µg/mL.

“Z-Val-Dil-Dap-Phenethylamine [compound 18]” was tested, and the GI-50 (NCI-H460) was 0.21 µg/mL, the LC-50 (NCI-H460) was > 1 µg/mL and the TGI (NCI-H460) was 0.66 µg/mL. The GI-50 (SK-MEL-5) was 0.29 µg/mL, the LC-50 (SK-MEL-5) was > 1 µg/mL and the TGI (SK-MEL-5) was > 1 µg/mL. The GI-50 (KM20L2) was 0.24 µg/mL, the LC-50 (KM20L2) was > 1 µg/mL and the TGI (KM20L2) was 0.67 µg/mL. For the same molecule, the GI-50 (A4X8) was 0.16 µg/mL, the LC-50 (A4X8) was > 1 µg/mL and the TGI (A4X8) was 0.52 µg/mL. The ED-50 [7] was > 1 µg/mL, the GI-50 (SF-2X5) was 0.14 µg/mL and the LC-50 (SF-2X5) was > 1 µg/mL. The TGI (SF-2X5) was 0.43 µg/mL, the GI-50 (OVCAR-3) was 0.051 µg/mL and the LC-50 (OVCAR-3) was 0.99 µg/mL. The TGI (OVCAR-3) was 0.24 µg/mL.
